Patent publication US10030016B2 (Sunesis Pharmaceuticals, Inc., priority 2009, dated 2018)
Counter-ions that a name gives are not always drawn. Like-named read-outs stand apart in the source and are kept apart here.

Experiments:
PDK1 = PDK1 (Homo sapiens (Human), UniProt O15530); experiment: PDK1 kinase assay (coupled PDK1/AKT/FAM-crosstide assay, IMAP fluorescence polarization); format: biochemical
Method in brief: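 GST-tagged human PDK1 (aa 51-359, 0.75 nM) from insect cells activated unphosphorylated GST-AKT2 (aa 140-467–PIFtide fusion, 10 nM), which phosphorylated 100 nM FAM-crosstide; 40 μM ATP, pH 7.2 Tris/MgCl2, 30 min at 25° C. IMAP fluorescence polarization read-out; ΔmP versus compound concentration fitted with a 4-parameter curve.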

[1] = test system: phospho-akt (Thr308) in PC-3 cells; experiment: Inhibition of phospho-akt (Thr308) in PC-3 cells, MSD phospho-akt 308 ELISA kit; format: cell-based; settings: Homo sapiens, 2 hours, no serum, read-out: EC50
Method in brief: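 Phospho-Akt (Thr308) levels were measured by MSD ELISA after PC-3 cells received compound for 2 hours in serum-free medium. Controls: DMSO (high), 5 μM wortmannin (low).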

[2] = inhibition of P308 Akt in PC-3 cells using MSD
[3] = inhibition of phospo-PDK1 in vitro
[4] = inhibition of P308 Akt in PC-3 cells, MSD

PDK1, sequence (O15530 51-359): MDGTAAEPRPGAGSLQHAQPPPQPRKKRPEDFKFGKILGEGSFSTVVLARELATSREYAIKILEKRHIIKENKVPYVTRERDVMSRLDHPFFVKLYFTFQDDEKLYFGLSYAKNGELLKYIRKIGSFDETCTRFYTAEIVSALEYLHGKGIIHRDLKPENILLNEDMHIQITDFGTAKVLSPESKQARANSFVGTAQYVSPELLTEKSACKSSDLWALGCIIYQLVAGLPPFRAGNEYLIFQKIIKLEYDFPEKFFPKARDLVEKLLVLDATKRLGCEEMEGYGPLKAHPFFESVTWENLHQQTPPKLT

IC50 (PDK1; inhibition of PDK1 in vitro) [nM] | EC50 [1, 2] [nM] | IC50 (PDK1; [3]) [nM] | EC50 [1, 4] [nM] | EC50 ([1]; PC-3, 2 h, inhibition of P308 Akt in PC-3 cells, MSD) [nM] | SMILES
 |  | 1000 to 5000 | > 10000 |  | O=C(NCc1ccc(C(F)(F)F)cc1)c1cccnc1NCc1ccc(-c2c[nH]c3ncccc23)s1 [Example 1.18]
 |  | 100 to 1000 | > 10000 |  | C[C@H](NC(=O)c1cn(-c2ccccc2)nc1NCc1ccc(-c2ccc3ncnc(N)c3c2)s1)c1ccc(F)c(F)c1 [Ex. 11.2]
 |  | 100 to 1000 | > 10000 |  | CCOc1ccnc(NCc2ccc(-c3ccc4ncnc(N)c4c3)s2)c1C(=O)N[C@@H](C)c1ccc(F)cc1 [Ex. 7.7, (S)-2-(((5-(4-aminoquinazolin-6-yl)thiophen-2-yl)methyl)amino)-N-(1-(4-fluoro-phenyl)ethyl)-4-ethoxynicotinamide]
 |  | 100 to 1000 | 1000 to 10000 |  | Nc1ncnc2ccc(-c3ccc(CNc4ncccc4C(=O)Nc4ccc(F)c(Cl)c4)s3)cc12 [Example 3.49, 2-({[5-(4-aminoquinazolin-6-yl)thiophen-2-yl]methyl}amino)-N-(3-chloro-4-fluorophenyl) pyridine-3-carboxamide (TFA salt)]
 |  | < 100 | 1000 to 10000 |  | C[C@H](NC(=O)c1cccnc1NCc1ccc(-c2cn(C)c3ncnc(N)c23)cc1)c1ccc(F)c(F)c1 [Example 2.38, 2-[4-(4-Amino-7-methyl-7H-pyrrolo[2,3-d]pyrimidin-5-yl)-benzylamino]-N-[(S)-1-(3,4-difluoro-phenyl)-ethyl]-nicotinamide]
 |  | 100 to 1000 | 1000 to 10000 |  | O=C(NCc1ccc(F)c(F)c1)c1cccnc1NCc1nc(-c2c[nH]c3ncccc23)cs1 [Ex. 6.11, N-(3,4-difluorobenzyl)-2-({[4-(1H-pyrrolo[2,3-b]pyridin-3-yl)-1,3-thiazol-2-yl]methyl}amino) pyridine-3-carboxamide]
 |  | 100 to 1000 |  | 1000 to 10000 | C/C=C/c1cnc(NCc2ccc(-c3ccc4ncnc(N)c4c3)s2)c(C(=O)NCc2ccc(F)c(F)c2)n1 [Ex. 10.6, 3-({[5-(4-aminoquinazolin-6-yl)thiophen-2-yl]methyl}amino)-N-(3,4-difluorobenzyl)-6-[(1E)-prop-1-en-1-yl] pyrazine-2-carboxamide]

The next lines start with the compound.

SMILES | IC50 (PDK1; inhibition of PDK1 in vitro) [nM] | EC50 [1, 2] [nM] | IC50 (PDK1; [3]) [nM] | EC50 [1, 4] [nM] | EC50 ([1]; PC-3, 2 h, inhibition of P308 Akt in PC-3 cells, MSD) [nM]
N#Cc1ccc(NC(=O)c2cc(C(F)(F)F)cnc2NCc2ccc(-c3cnc4[nH]nc(N)c4c3)cc2)cc1 [Example 300, 2-(4-(3-amino-1H-pyrazolo [3,4-b]pyridin-5-yl)benzylamino)-N-(4-cyanophenyl)-5-(trifluoromethyl)nicotinamide] | < 100 | < 1000 |  |  | 
C[C@H](NC(=O)c1nc(C#N)cnc1NCc1ccc(-c2cnc(N)c(O[C@H]3CCC[C@@H]3N)n2)cc1)c1ccc(F)c(F)c1 [Example 169, 3-{4-[5-Amino-6-((1S,2S)-2-amino-cyclopentyloxy)-pyrazin-2-yl]-benzylamino}-6-cyano-pyrazine-2-carboxylic acid [(S)-1-(3,4-difluoro-phenyl)-ethyl]-amide] | < 100 | < 1000 |  |  | 
Cn1ccc(NC(=O)c2cc(C(F)(F)F)cnc2NCc2ccc(-c3cnc4[nH]nc(N)c4c3)cc2)n1 [Example 307, 2-(4-(3-amino-1H-pyrazolo [3,4-b]pyridin-5-yl)benzylamino)-N-(1-methyl-1H-pyrazol-3-yl)-5-(trifluoromethyl)nicotinamide] | 1000 to 5000 | 1000 to 10000 |  |  | 
Nc1ncnc2ccc(-c3ccc(CNc4nccc(C(F)(F)F)c4C(=O)NCc4ccc(F)c(F)c4)s3)cc12 [Example 8.12.4, 2-({[5-(4-aminoquinazolin-6-yl)thiophen-2-yl]methyl}amino)-N-(3,4-difluorobenzyl)-4-(trifluoromethyl)pyridine-3-carboxamide] |  |  | > 5000 | 1000 to 10000 | 
O=C(NCc1ccc(F)cc1)c1cccnc1NCc1ccc(-c2cnc3[nH]ncc3c2)cc1 [Example 393, 2-(4-(1H-pyrazolo[3,4-b]pyridin-5-yl)benzylamino)-N-(4-fluorobenzyl) nicotinamide] | < 100 | 1000 to 10000 |  |  | 
NCCNS(=O)(=O)c1cnc(NCc2ccc(-c3ccc4ncnc(N)c4c3)s2)c(C(=O)NCc2ccc(F)c(F)c2)c1 [Example 8.6.13, 5-(N-(2-aminoethyl)sulfamoyl)-2-(((5-(4-aminoquinazolin-6-yl)thiophen-2-yl)methyl)amino)-N-(3,4-difluorobenzyl) nicotinamide] |  |  | 1000 to 5000 | > 10000 | 
CN(C(=O)c1cc(C(F)(F)F)cnc1NCc1ccc(-c2cnc3[nH]nc(N)c3c2)cc1)c1ccc(F)cc1 [Example 290, 2-(4-(3-amino-1H-pyrazolo [3,4-b]pyridin-5-yl)benzylamino)-N-(4-fluorophenyl)-N-methyl-5-(trifluoromethyl) nicotinamide] | > 5000 | 1000 to 10000 |  |  | 
N#Cc1cnc(NCc2ccc(-c3cnc4[nH]c(=O)[nH]c4c3)cc2)c(C(=O)NCc2ccc(F)c(F)c2)n1 [Example 364, 6-cyano-N-(3,4-difluorobenzyl)-3-(4-(2-oxo-2,3-dihydro-1H-imidazo[4,5-b]pyridin-6-yl)benzylamino)pyrazine-2-carboxamide] | < 100 | < 1000 |  |  | 
Nc1ncnc2ccc(-c3ccc(CNc4ncc(NC(=O)c5ccccc5)cc4C(=O)NCc4ccc(F)c(F)c4)s3)cc12 [Example 8.5.7, 2-({[5-(4-aminoquinazolin-6-yl)thiophen-2-yl]methyl}amino)-N-(3,4-difluorobenzyl)-5-[(phenylcarbonyl)amino] pyridine-3-carboxamide] |  |  | 100 to 1000 | > 10000 | 
CNC(=O)c1cc(S(=O)(=O)NC(C)(C)C)cnc1NCc1ccc(-c2ccc3ncnc(N)c3c2)s1 [Example 8.6.18, 2-(((5-(4-aminoquinazolin-6-yl)thiophen-2-yl)methyl)amino)-5-(N-t-butylsulfamoyl)-N-methylnicotinamide] |  |  | > 5000 | 1000 to 10000 | 
Nc1n[nH]c2ncc(-c3ccc(CNc4ncc(C(F)(F)F)cc4-c4nc5cc(F)ccc5o4)cc3)cc12 [Example 348, 5-(4-((3-(5-fluorobenzo[d]oxazol-2-yl)-5-(trifluoro-methyl)pyridin-2-ylamino)methyl)phenyl)-1H-pyrazolo [3,4-b]pyridin-3-amine] | > 5000 | > 10000 |  |  | 
C[C@H](NC(=O)c1cc(C#N)cnc1NCc1ccc(-c2cnc(N)c(O[C@@H]3CCC[C@H]3N)n2)cc1)c1ccc(F)cc1 [Example 171, 2-{4-[5-Amino-6-((1R,2R)-2-amino-cyclopentyloxy)-pyrazin-2-yl]-benzylamino}-5-cyano-N-[(S)-1-(4-fluoro-phenyl)-ethyl]-nicotinamide] | < 100 | 1000 to 10000 |  |  | 
CCn1cc(-c2ccc(CNc3ncc(C(F)(F)F)cc3C(=O)Nc3ccc(F)cc3)cc2)c2c(N)ncnc21 [Example 430, 2-(4-(4-amino-7-ethyl-7H-pyrrolo[2,3-d]pyrimidin-5-yl)benzylamino)-N-(4-fluorophenyl)-5-(trifluoromethyl)nicotinamide] | < 100 | 1000 to 10000 |  |  | 
Nc1n[nH]c2ncc(-c3ccc(CNc4ncc(C(F)(F)F)cc4C(=O)Nc4ccc(C(F)(F)F)nc4)cc3)cc12 [Example 276, 2-(4-(3-amino-1H-pyrazolo [3,4-b]pyridin-5-yl)benzylamino)-5-(trifluoromethyl)-N-(6-(trifluoromethyl)pyridin-3-yl)nicotinamide] | < 100 | 1000 to 10000 |  |  | 
C[C@H](COc1ccc2c(c1)NC(=O)/C2=C\c1cnc[nH]1)Nc1ncccc1C(=O)NCc1ccc(F)c(F)c1 [Example 24, (R,Z)-2-(1-(3-((1H-imidazol-5-yl)methylene)-2-oxoindolin-6-yloxy)propan-2-ylamino)-N-(3,4-difluorobenzyl)nicotinamide] |  |  | < 100 | 1000 to 10000 | 
NCCNc1nc(-c2ccc(CNc3ncc(C(F)(F)F)cc3C(=O)Nc3ccc(F)cc3)cc2)cnc1N [Example 194, 2-{4-[5-Amino-6-(2-amino-ethylamino)-pyrazin-2-yl]-benzylamino}-N-(4-fluoro-phenyl)-5-trifluoromethyl-nicotinamide] | < 100 | < 1000 |  |  | 
Nc1ncc(-c2ccc(CNc3ncc(C(F)(F)F)cc3C(=O)Nc3ccc(F)cc3)cc2)nc1CC1CCNC1 (stereo not drawn) [Example 186, 2-[4-(5-Amino-6-pyrrolidin-3-ylmethyl-pyrazin-2-yl)-benzylamino]-N-(4-fluoro-phenyl)-5-trifluoromethyl-nicotinamide] | < 100 | < 1000 |  |  | 
Nc1ncnc2ccc(-c3ccc(CNc4ncc(S(=O)(=O)N5CCOCC5)cc4C(=O)NCc4ccc(F)c(F)c4)s3)cc12 [Example 8.7.12, 2-(((5-(4-aminoquinazolin-6-yl)thiophen-2-yl)methyl)amino)-N-(3,4-difluorobenzyl)-5-(morpholinosulfonyl) nicotinamide] |  |  | 100 to 1000 | < 1000 | 
Nc1ncc(-c2ccc(CNc3ncc(C(F)(F)F)cc3C(=O)Nc3ccc(F)cc3)cc2)nc1CCC1CCCNC1 (stereo not drawn) [Example 77, 2-{4-[5-Amino-6-(2-piperidin-3-yl-ethyl)-pyrazin-2-yl]-benzylamino}-N-(4-fluoro-phenyl)-5-trifluoromethyl-nicotinamide] | < 100 | 1000 to 10000 |  |  | 
C[C@H](NC(=O)c1nc(C#N)cnc1N[C@H](C)c1ccc(-c2cnc3[nH]nc(N)c3n2)cc1)c1ccc(F)c(F)c1 [Example 411, 3-{(R)-1-[4-(3-Amino-1H-pyrazolo[3,4-b]pyrazin-5-yl)-phenyl]-ethylamino}-6-cyano-pyrazine-2-carboxylic acid [(S)-1-(3,4-difluoro-phenyl)-ethyl]-amide] | < 100 | < 1000 |  |  | 
